From a melting point compilation (Tetko et al.; mined from patent text by program, amines drawn as free bases though some values may be those of a salt)

Row | SMILES | melting point [°C]
1 | COc1ccnc2c1c(C(C)=O)cn2S(=O)(=O)c1ccccc1 | 156 to 158
2 | CCCc1nc(C=NNC(=O)OCC)c[nH]1 | 180 to 182
3 | CC(C)C(c1cncnc1C(F)(F)F)N(C)C(=O)Cc1ccccc1 (stereo unspecified) | 106 to 109
4 | Cc1nc(-c2ccc(C(F)(F)F)cc2)sc1CCOc1ccc(CCC(=O)O)cc1 | 128 to 130
5 | CCCCCCCCCCCCCc1ccc(-c2nc(-c3ccccc3Cl)nn2C)cc1 | 55 to 57
6 | CC(C#N)(C(=O)NC1CCCCC1)c1ccccc1 (stereo unspecified) | 76 to 78
7 | C[C@@H](NC(=O)c1c[nH]c2ncc(-c3nn(C)c4cc(Cl)ccc34)nc12)C(=O)N1CC(F)C1 | 257 to 260
8 | CCNc1ccnc(Cl)c1 | 55 to 57
9 | O=c1nc(-c2cnccn2)sc2ccccc12 | 241 to 242
10 | Cc1cc(-c2ccc(Cl)cc2)nc(-c2ccnc(-c3ccc(S(N)(=O)=O)s3)c2)n1 | 232
11 | COc1cc(COc2nn(-c3ccccc3)cc2/C=C/c2cnco2)ccc1OCc1nc(-c2ccco2)oc1C | 137 to 138
12 | CC(=O)NC[C@H]1CN(c2ccc(C3=CN(C(=O)COC(C)=O)CCC3)c(F)c2)C(=O)O1 | 146 to 148
13 | CCc1c2nc(-c3cc(S(C)(=O)=O)ccc3OCC(C)C)[nH]c(=O)c2nn1CCN1CCOCC1 | 268 to 273
14 | CCC(=O)NCC[C@@H]1CCc2ccc3c(c21)CCO3 | 113 to 115
15 | CCOC(=O)c1cn(CC)c2cc(C3CCCCC3)ccc2c1=O | 176 to 178
16 | Cc1c(O[Si](C)(C)C(C)(C)C)cc(O[Si](C)(C)C(C)(C)C)c(C)c1C(=O)OCc1ccc([N+](=O)[O-])cc1 | 121 to 122
17 | CCc1cc(CCc2nc3ccccc3o2)c(=S)[nH]c1C | 199 to 201
18 | CCOC(=O)C1(C(=O)OCC)C(CC)C(=O)N1Cc1ccc(OC)cc1OC (stereo unspecified) | 69
19 | CN1c2ccc(C#CCO)cc2C(O)=C(C(=O)NCc2ccc(Cl)cc2)S1(=O)=O | 167 to 168
20 | CCOC(=O)C(C(=O)OCC)C(C#N)(c1ccc(F)cc1)c1ccc(F)cc1 | 90 to 91
21 | CC(=O)c1nn2c3c(cccc13)CCC2 | 62 to 64
22 | COc1cc(OC(C)C(=O)O)c2c3c(C(N)=O)cccc3n(Cc3ccccc3)c2c1 (stereo unspecified) | 170 to 172

Row | SMILES | melting point [°C]
23 | CCCc1c(OCCCOc2ccc3c(c2CCC)OC(C(=O)OC)CC3)ccc(C(C)=O)c1O (stereo unspecified) | 70 to 72
24 | COC(=O)Cc1cccc(Cc2ccccc2C(=O)O)c1 | 67 to 70
25 | Cc1ccc2c(c1)C(=O)N1CCN=C1N2N1CCCCC1 | 197 to 199
26 | CC(CCC(=O)NN1CCN(C)CC1)C1CC=C2C3=C(CCC21C)C1(C)CCC(O)C(C)(C)C1CC3 (stereo unspecified) | 189 to 191
27 | CS(=O)(=O)Oc1cc(C=CC(=O)c2ccccc2)cc([N+](=O)[O-])c1OS(C)(=O)=O | 181 to 184
28 | O=C(Cl)CC1(c2ccccc2)C(=O)Oc2ccc(Cl)cc21 (stereo unspecified) | 107
29 | NNC(=O)c1ccc(OCc2ccccc2)cn1 | 140 to 142
30 | O=C(NO)C(=O)Nc1ccccc1 | 165 to 167
31 | CCCC(=O)C(=CNc1ccc(CO)cc1)C(=O)OCC | 44 to 46
32 | O=c1c(-c2ccccc2F)c(CNc2ncnc3[nH]cnc23)oc2ccccc12 | 143 to 147
33 | CCCCCCCCCCCCCCCCCNC(=O)Oc1cccc(N)c1 | 69 to 75
34 | CCCOc1cc(Oc2ccc(C(F)(F)F)cn2)ccc1CCCOc1c(CC(=O)O)cccc1OC | 78 to 79
35 | CN1CC=C(c2c[nH]c3ccc(NC(=O)c4ccccc4)cc23)CC1 | > 250
36 | CC(=O)NCCC1CCc2ccc3c(c21)CCO3 (stereo unspecified) | 78 to 79
37 | O=C(/C=C/c1cccc(S(=O)(=O)N2CCN(c3ncccn3)CC2)c1)NO | 200
38 | NC(=O)NCCS(=O)CC(O)CO (stereo unspecified) | 102
39 | CCOC(=O)C1=C(C(=O)OCC)c2c(OC)ccc(Br)c2C1 | 99 to 101
40 | COC(=O)c1ccc(Sc2ccc(O)cc2)cc1 | 184 to 186
41 | CCOC(=O)C(O)(CC(C)(C)c1cc(F)ccc1OC)C(F)(F)F (stereo unspecified) | 38 to 39
42 | O=C(O)CSC1CCCc2cc3c(cc21)OCO3 (stereo unspecified) | 138 to 139
43 | CC(NC(=O)OC(C#N)c1cccc(Oc2ccccc2)c1)c1cccc2ccccc12 (stereo unspecified) | 122
44 | CCOc1ccc(C2C(=O)Oc3c2cc(C(C)(C)C)cc3C(C)(C)C)cc1 (stereo unspecified) | 132 to 134

Row | SMILES | melting point [°C]
45 | COc1cc(C2=C(C(C)(C)C)C(C)(C)CO2)cc2oc(-c3ccccc3)nc12 | 68.5 to 69
46 | N#CSc1ccc(N)c(C(=O)c2ccccn2)c1 | 102 to 104
47 | CCCCNC(=O)C(=O)Nc1ccc(OC)cc1[N+](=O)[O-] | 127 to 128
48 | N#CC1(c2ccc(F)cc2)C=CC(N2CCN(c3cccnn3)CC2)CC1 (stereo unspecified) | 189
49 | C=C(CC1(C)C(=O)c2ccc(Cl)cc2C1=O)c1cccc(Cl)n1 (stereo unspecified) | 72 to 73
50 | COc1on(C)c(=O)c1-c1ccccc1COc1ccccc1C | 90 to 92
51 | O=C(/C=C/c1c(Cl)cccc1Cl)/C=C/c1c(Cl)cccc1Cl | 145 to 146
52 | Nc1ccc2oc([N+](=O)[O-])c(-c3ccccc3)c2c1 | 125 to 127
53 | CN1CCN(c2ccc3c(ccc4c(=O)cc(C(=O)Nc5ccc(N6CCOCC6)cc5)oc43)c2)CC1 | 217 to 218
54 | N#CCOc1cccc2onc(N)c12 | 133 to 136
55 | COc1ccc2c(c1)C(OC(C)C)=C(C(=O)O)S2=O (stereo unspecified) | 184 to 187
56 | C[C@@H](c1ccc(-c2ccc(F)cn2)cc1)N1CC[C@](CC(C)(C)O)(c2ccccc2)OC1=O | 159 to 160
57 | O=C(Nc1nccs1)c1cn(-c2ccccc2)c2ccccc2c1=O | 290
58 | C[C@@H]1CCNC[C@@H]1N(C)c1ncnc2[nH]ccc12 | 158
59 | Cc1c(C(=O)Nc2ccc(N3CCC(N4CCNCC4)CC3)c(C#N)c2)cnn1-c1ccc(Cl)cc1 | 226
60 | OCc1ccc(-c2ccc(-c3cn([C@H]4CN5CCC4CC5)nn3)o2)cc1 | 209
61 | ClCc1ccnc(OCc2cn3c(Cl)cccc3n2)c1 | 118 to 119
62 | O=C(O)CCN(O)CCC(=O)O | 148 to 149
63 | O=[N+]([O-])c1cc(-c2nc(-c3ccco3)no2)ccc1Cl | 136 to 138
64 | CCCCCCCCCC=CC(=O)C1C(=O)C=C(C)OC1=O (stereo unspecified) | 112 to 113
65 | COc1cc2c(cc1O)CCN(C(C)=O)C2 | 139 to 140

Continued, values first:

Row | melting point [°C] | SMILES
66 | 196 to 197 | c1ccc(COc2ccc3c(c2)N=C(NCc2cccnc2)c2ccccc2N3)cc1
67 | 235 to 236 | Cn1c2cc(Cl)ccc2c2c(C=O)nn(-c3ccccc3)c(=O)c21
68 | 188 to 189 | CC(C)NCCOc1ccc(-c2nc3ccccc3c(=O)[nH]2)nc1-c1ccc(S(C)(=O)=O)cc1
69 | 42 to 46 | CCCCCCCCCCCCCC/C=C\CNC(=O)OC(C)(C)C
70 | 216 to 218 | O=C(O)c1cc(=O)c(Cl)c(-c2ccccc2)o1
71 | 243 to 245 | O=C(O)Cn1c(-c2cccc(F)c2)nc2cccnc21
72 | 195 | COc1ccc2ccccc2c1C(Nc1ccccc1C)C(N)=O (stereo unspecified)
73 | 70 to 80 | COc1cc2c(cc1Nc1ncc(Cl)c(Nc3ccc(N4CCOCC4)cc3OC)n1)CCN(CC(=O)OC(C)C)CC2
74 | 98 to 100 | Cc1c(-c2ccc(O)cc2)n(Cc2ccc(OCCN3CC4(C)CC3CC(C)(C)C4)cc2)c2ccc(O)cc12 (stereo unspecified)
75 | 290 | NS(=O)(=O)c1ccc(-c2cc(-c3nc(-c4ccc(Cl)cc4)cc(C(F)(F)F)n3)ccn2)s1
76 | 219 to 221 | COc1ccccc1/C=C/C(=O)Nc1cccc(NC(=N)c2ccccc2)c1
77 | 135 to 160 | CCOCc1nc2c(N)nc3ccccc3c2n1CC1(NC(=O)NC(C)C)CCCCC1
78 | 255 to 256 | O=C1CC(c2sccc2Cl)=Nc2ccc(-c3ccc(F)cc3)cc2N1
79 | 88 to 90 | Cn1c(-c2ccccc2)c(CCCl)sc1=O
80 | 108 to 111 | COCCOc1nc(SC)c(C#N)c(N2CCc3ccccc3CC2)n1
81 | 84 to 85 | O=[N+]([O-])c1ccc2c(c1)OC(c1ccccc1)O2 (stereo unspecified)
82 | > 300 | Cc1[nH]n(Cc2cccc(C(=O)O)c2)c2nc(-c3ccncc3)nc(=O)c1-2
83 | 138 to 140 | CC(C)(C)c1ccc(-c2cc(Nc3ccc4[nH]ccc4c3)nnc2-c2ccccc2)cc1

Row | melting point [°C] | SMILES
84 | 169 to 170 | CC(C)(O)Cn1cnc2cnc3ccccc3c21
85 | 300 | Cc1cc2cc(C#N)c(=O)[nH]c2cc1C
86 | 227 to 230 | CN(C)CC(=O)OCc1ccc2c(c1)-c1n[nH]c(=O)c3cccc(c13)O2
87 | 273 to 274 | Cc1cccc(NC(=O)c2cn(-c3ccccc3)c3ccccc3c2=O)n1
88 | 166 to 169 | CC(=O)N(C)c1cccc(-c2ccc3nncn3n2)c1
89 | 214 to 217 | C[C@]1(COc2ccc(N3CCN(Cc4ccc(OC(F)(F)F)cc4)CC3)cc2)Cn2cc([N+](=O)[O-])nc2O1
90 | 139 to 140 | Fc1ccc(-c2ncn(CCCCl)c2-c2ccncc2)cc1
91 | 133 to 135 | CCCc1oc(C)cc(=O)c1C(=O)Nc1cccc(C)c1C
92 | 140 to 141 | COc1ccc(-c2nc(C(F)(F)F)cn2-c2ccc(Br)cc2)cc1
93 | 183 to 184 | Cc1nc(-n2ccc(OCc3ccccc3)cc2=O)[nH]c1C(=O)NCc1ccccc1
94 | 106 to 109 | CS(=O)(=O)c1ccc(C(CC2CCOCC2)c2cnc(-c3ccccn3)[nH]2)cc1Cl (stereo unspecified)
95 | 80 to 110 | COc1ccccc1OC(c1ccccc1)C(O)CN (stereo unspecified)
96 | 199 to 201 | CNS(=O)(=O)c1ccccc1Nc1nc(Nc2ccc3c(c2)CCN(S(C)(=O)=O)CC3)ncc1Cl
97 | 113 to 114 | CC(C)(C)OC(=O)NCCCCNOC(=O)c1ccccc1
98 | 110 | O=C(CCc1cc(-c2ccccc2)nc2ccccc12)N1CCCCC1
99 | 182 to 185 | O=Cc1ccc2cc3c(cc2c1)sc1ccccc13
100 | 194 to 196 | O=C1COc2ccc3ccccc3c21
101 | 120 to 162 | CNC(=O)N1CCC(C(c2ccc(F)cc2)N(Cc2ccc(F)cc2)C(=O)NC)CC1 (stereo unspecified)
